Data: patent US12186314B2, “Compositions and methods for treatment, amelioration, and prevention of anesthesia-induced hypothermia” (ARIZONA BOARD OF REGENTS ON BEHALF OF THE UNIVERSITY OF …, priority 2015, dated 2025)
Entries after “also recorded” stand apart in the source; their conditions may differ. Like-named read-outs stand apart in the source and are kept apart here.

What was measured:
TRPV1 [1] = target: T1, TRPV1 (Rattus norvegicus, UniProt O35433); set-up: from tissue; host or cells: whole live non-anesthetized rats; settings: non-anesthetized (unanesthetized) rats, cited from earlier work
TRPV1 [2] = target: T2, TRPV1 (Homo sapiens, UniProt Q8NER1); settings: non-anesthetized humans; cited from earlier work
T2 construct: host or cells: human subjects (clinical observations)

TRPV1 [3] = target: T1, TRPV1; assay: isoflurane anesthesia-induced hypothermia in adult rats, various TRPV1 antagonists, rectal temperature; format: in vivo; set-up: from tissue; host or cells: whole live non-anesthetized rats; settings: isoflurane 2 L/min, 5% induction, 2.5% maintenance, 20 minutes post anesthesia-induction
Experimental: After acclimatizing to the testing chamber and obtaining baseline core body temperature, adult rats were anesthetized with isoflurane (2 L/min, 5% induction, 2.5% maintenance) and the anesthetized animals were injected with vehicle or various TRPV1 antagonists at doses described and rectal temperature was monitored for 20 minutes post anesthesia-induction.

TRPV1 [4] = target: T1, TRPV1; assay: volatile (isoflurane) anesthesia-induced hypothermia in adult rats, rectal core body temperature; format: in vivo; set-up: from tissue; host or cells: whole live non-anesthetized rats; settings: isoflurane 5% induction, 2.5% maintenance, 0.01, 0.1 and 1 mg/kg, 5 min intervals, 0.1 and 1 mg/kg significant at all time points (p<0.01)
Experimental: Briefly, after obtaining baseline core body temperature, lightly restrained rats were anesthetized with isoflurane (5% induction, 2.5% maintenance), the effect of varying dose of AMG 517 (0.01, 0.1 and 1 mg/kg) and control (vehicle) on rectally-measured temperature (core body temperature) was measured at 5 min intervals. At 20 minutes, a warming blanket was used to prevent further temperature drop in the control (vehicle) group. Vehicle treated rats developed hypothermia after exposure to anesthesia.

TRPV1 [5] = target: T1, TRPV1; assay: core body temperature during isoflurane anesthesia and in the post-anesthesia period; format: in vivo; set-up: from tissue; host or cells: whole live non-anesthetized rats; settings: rats
Experimental: After taking baseline core body temperature, rats were anesthetized with isoflurane and quickly injected with either vehicle or 0.1 mg/kg of AMG 517 via a tail vein injection. The core body temperature was measured every 5 minutes during the duration of anesthesia (45 min) and 30 minutes after that (n=8 per group) (see, FIG. 3).

TRPV1 [6] = target: T1, TRPV1; assay: isoflurane anesthesia-induced hypothermia in neonatal rats, core body temperature; format: in vivo; set-up: from tissue; host or cells: whole live non-anesthetized rats; settings: neonatal rats (age 10d), 1 mg/kg i.v. (at 20 min time point) and 2 mg/kg (all time points)
Experimental: Briefly, after gently separating neonatal male or female rats (age 10d) from the littermates, the animals were exposed to isoflurane anesthesia (5% induction, 2.5% maintenance), and then were injected with either vehicle or AMG 517 (1-2 mg/kg, i.v.) and core body temperature was measured at 5 minute intervals.

TRPV1 [7] = target: T1, TRPV1; settings: 24 hours post surgery
TRPV1 [8] = target: T1, TRPV1; assay: ketamine-induced hypothermia in rats, core body temperature; format: in vivo; set-up: from tissue; host or cells: whole live non-anesthetized rats; settings: ketamine 100 mg/kg, 0.01-1 mg/kg tail vein
Experimental: This example describes the use of AMG 517 to reverse hypothermia induced by a non-volatile anesthetic (ketamine) (FIG. 5). After taking baseline core body temperature, rats were anesthetized with ketamine (100 mg/kg) and quickly injected with either vehicle or 0.01-1 mg/kg of AMG 517 via a tail vein injection. The core body temperature was measured every 5 minutes for 20 minutes post ketamine injection (n=8 per group).

T2 sequence (Q8NER1 whole entry): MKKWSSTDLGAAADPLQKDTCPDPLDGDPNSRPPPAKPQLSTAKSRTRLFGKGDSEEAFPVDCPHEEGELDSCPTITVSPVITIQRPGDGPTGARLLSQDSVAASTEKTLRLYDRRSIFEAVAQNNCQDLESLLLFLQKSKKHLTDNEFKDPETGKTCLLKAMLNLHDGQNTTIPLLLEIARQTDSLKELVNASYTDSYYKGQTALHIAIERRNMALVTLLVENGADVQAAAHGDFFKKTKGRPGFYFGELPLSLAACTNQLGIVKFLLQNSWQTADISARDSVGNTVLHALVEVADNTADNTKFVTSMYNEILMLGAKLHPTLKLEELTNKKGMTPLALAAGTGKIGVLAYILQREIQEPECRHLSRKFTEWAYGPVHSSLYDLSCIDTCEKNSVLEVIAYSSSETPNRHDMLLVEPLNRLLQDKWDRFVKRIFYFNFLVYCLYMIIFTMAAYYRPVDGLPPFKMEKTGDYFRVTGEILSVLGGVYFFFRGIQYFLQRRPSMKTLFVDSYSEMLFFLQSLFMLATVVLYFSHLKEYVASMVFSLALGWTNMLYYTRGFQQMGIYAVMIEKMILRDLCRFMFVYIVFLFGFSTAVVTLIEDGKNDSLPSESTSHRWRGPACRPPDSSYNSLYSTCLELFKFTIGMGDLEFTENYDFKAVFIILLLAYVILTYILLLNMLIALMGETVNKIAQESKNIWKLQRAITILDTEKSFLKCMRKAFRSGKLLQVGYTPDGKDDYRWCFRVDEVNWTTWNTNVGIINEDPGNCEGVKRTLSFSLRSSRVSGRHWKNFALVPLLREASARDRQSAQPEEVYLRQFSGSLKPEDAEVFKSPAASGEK
T1 sequence (O35433 whole entry): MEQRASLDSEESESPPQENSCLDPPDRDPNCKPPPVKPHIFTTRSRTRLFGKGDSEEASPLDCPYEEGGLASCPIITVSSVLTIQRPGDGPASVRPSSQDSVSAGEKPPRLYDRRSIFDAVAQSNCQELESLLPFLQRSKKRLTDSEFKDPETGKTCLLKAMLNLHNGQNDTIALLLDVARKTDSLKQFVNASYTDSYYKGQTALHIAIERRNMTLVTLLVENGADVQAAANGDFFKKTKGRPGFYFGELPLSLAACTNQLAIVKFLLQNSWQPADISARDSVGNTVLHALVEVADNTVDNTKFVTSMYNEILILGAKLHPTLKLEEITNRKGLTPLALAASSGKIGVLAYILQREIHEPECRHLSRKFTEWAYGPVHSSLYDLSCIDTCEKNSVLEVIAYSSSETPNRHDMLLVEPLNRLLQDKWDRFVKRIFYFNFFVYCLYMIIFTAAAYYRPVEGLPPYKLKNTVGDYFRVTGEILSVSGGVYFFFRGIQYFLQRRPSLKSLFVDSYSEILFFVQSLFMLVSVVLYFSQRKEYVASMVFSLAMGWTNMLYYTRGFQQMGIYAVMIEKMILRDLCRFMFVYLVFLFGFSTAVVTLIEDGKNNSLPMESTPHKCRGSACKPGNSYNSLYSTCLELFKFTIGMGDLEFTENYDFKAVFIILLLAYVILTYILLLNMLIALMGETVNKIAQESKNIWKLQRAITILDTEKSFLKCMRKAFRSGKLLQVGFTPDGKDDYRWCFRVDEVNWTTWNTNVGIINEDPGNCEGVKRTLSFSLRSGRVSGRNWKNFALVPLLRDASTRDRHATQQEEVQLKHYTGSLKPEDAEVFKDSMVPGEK

Structure (SMILES)	ability to cause hyperthermia (TRPV1 [1])	ability to cause hyperthermia (TRPV1 [2])	reversal/prevention of anesthesia-induced hypothermia (rectal temperature) (TRPV1 [3])	also measured
Cc1cc2c(NC(=O)N[C@@H]3CC(CF)(CF)Oc4cc(Cl)ccc43)cccc2cn1 [A-1165442]	unable to cause hyperthermia			
CC(C)(C)c1ccc2c(c1)CC[C@H]2NC(=O)Nc1cccc2[nH]ncc12 [ABT 102]	able to cause hyperthermia	able to cause hyperthermia	dose dependently reverse anesthesia-induced hypothermia	ability to cause hyperthermia (TRPV1 [1]; listed as ABT): cause hyperthermia in unanesthetized rats
CC(=O)Nc1nc2c(Oc3cc(-c4ccc(C(F)(F)F)cc4)ncn3)cccc2s1 [AMG 517]	able to cause hyperthermia	able to cause hyperthermia		reversal of anesthesia-induced hypothermia (rectally-measured core body temperature) (TRPV1 [4]): dose dependently reversed anesthesia-induced hypothermia; hyperthermia in the post-anesthesia period (TRPV1 [5]; 0.1 mg/kg tail vein, 30 minutes after anesthesia, 0.1 mg/kg): does not produce hyperthermia in the post-anesthesia period; also recorded: did not cause hyperthermia even when the animals recovered from anesthesia; development of hypothermia during anesthesia (core body temperature) (TRPV1 [5]; isoflurane 45 min, 0.1 mg/kg tail vein injection): never developed hypothermia throughout the anesthesia period; reversal of anesthesia-induced hypothermia (core body temperature) (TRPV1 [6]): partially and statistically significantly; opioid sparing effect on postsurgical thermal and mechanical hyperalgesia (TRPV1 [7]; rats, preemptive tail vein dose before incision, subcutaneous morphine): opioid sparing effect; hyperthermia under ketamine anesthesia (TRPV1 [8]): without causing hyperthermia at all time points tested; reversal of ketamine-induced hypothermia (core body temperature) (TRPV1 [8]; 20 minutes post ketamine): dose dependently and statistically significantly
CC(C)(C)c1ccc(/C=C/C(=O)Nc2ccc3c(c2)OCCO3)cc1 [AMG 9810]	able to cause hyperthermia	able to cause hyperthermia	dose dependently reverse anesthesia-induced hypothermia	ability to cause hyperthermia (TRPV1 [1]; listed as AMG): cause hyperthermia in unanesthetized rats
COc1cccc(NC(=O)/C=C/c2ccc(Cl)cc2)c1 [SB366791]	unable to cause hyperthermia		dose dependently reverse anesthesia-induced hypothermia	ability to cause hyperthermia (TRPV1 [1]; listed as SB): cause hyperthermia in unanesthetized rats
Oc1cc2c(cc1O)CN(C(=S)NCCc1ccc(Cl)cc1)CCC2 [capsazepine]	unable to cause hyperthermia; also recorded: don't		able to prevent anesthesia-induced hypothermia; also recorded: dose dependently reverse anesthesia-induced hypothermia	
CN1CC[C@]23c4c5ccc(O)c4O[C@H]2[C@@H](O)C=C[C@H]3[C@H]1C5 [morphine]				morphine analgesic effect on postsurgical thermal and mechanical hyperalgesia (TRPV1 [7]; animals that received preemptive TRPV1 antagonist treatment before the surgical insult): analgesic effect at much lower doses of 0.3 and 0.6 mg/kg; morphine analgesic effect on postsurgical thermal and mechanical hyperalgesia (TRPV1 [7]; vehicle treated animals): not responsive to morphine until the dose of morphine was raised to 1 mg/kg
